# According to patent US8158792B2, “Spiropiperidines for use as tryptase inhibitors” (Janssen Pharmaceutica N.V., priority 2007, dated 2012):
# pIC50: −log10 of the molar value.
# Biological target: human lung tryptase
# Experiment: β-Tryptase In-Vitro Enzyme Assay
# Assay type: biochemical
# Settings: human lung tryptase 1 nM, substrate H-D-HHT-Ala-Arg-pNa 500 μM, pH 7.4, room temperature
# Description: The β-tryptase assay was conducted with human lung tryptase (Cortex Biochem #CP3033) in an aqueous buffer (10 mM Tris, 10 mM Hepes, 150 mM NaCl, 0.1% PEG 8000, pH 7.4) using the chromogenic substrate H-D-HHT-Ala-Arg-pNa. […] Percent inhibition was calculated by comparing the initial reaction velocity of samples without inhibitor to those with inhibitor. The initial reaction velocities were analyzed using Microsoft Excel.
row,pIC50,Compound
1,6.77,"NCc1ccc2c(c1)C1(CCN(C(=O)c3sc4cc(F)ccc4c3Cl)CC1)CO2 [Cpd 171, 1-(3-chloro-6-fluoro-benzo[b]thien-2-yl)carbonyl-5′-aminomethyl-spiro[piperidine-4,3′-(2H)-benzo[b]furan]]"
2,6.89,"NCc1ccc2c(c1)C1(CCN(C(=O)c3cccc(Br)c3)CC1)CO2 [Cpd 29, 1-(3-bromo-phenyl)carbonyl-5′-aminomethyl-spiro[piperidine-4,3′-(2H)-benzo[b]furan]]"
3,6.32,"NCc1ccc2c(c1)C1(CCN(C(=O)c3ccc(Cl)c(Cl)c3)CC1)C(=O)N2 [Cpd 315, 1-(3,4-dichlorophenyl)carbonyl-2′-oxo-5′-aminomethyl-spiro[piperidine-4,3′-(2H)-indole]]"
4,6.72,"Cc1cc(C(=O)N2CCC3(CC2)COc2ccc(CN)cc23)ccc1I [Cpd 51, 1-(3-methyl-4-iodo-phenyl)carbonyl-5′-aminomethyl-spiro[piperidine-4,3′-(2H)-benzo[b]furan]]"
5,6.35,"NCc1ccc2c(c1)C1(CCN(C(=O)Cc3ccc(I)cc3)CC1)CO2 [Cpd 96, 1-(4-iodo-benzyl)carbonyl-5′-aminomethyl-spiro[piperidine-4,3′-(2H)-benzo[b]furan]]"
6,5.19,"CC(C)(C)c1cccc(C(=O)N2CCC3(CC2)COc2ccc(CN)cc23)c1 [Cpd 274, 1-(3-tert-butyl-phenyl)carbonyl-5′-aminomethyl-spiro[piperidine-4,3′-(2H)-benzo[b]furan]]"
7,7.64,"COC(=O)c1cccc(S(=O)(=O)N2CC3(CCN(C(=O)c4ccc(C#Cc5ccccc5)o4)CC3)c3cc(CN)ccc32)c1 [Cpd 344, 1-(5-phenylethynyl-furan-2-yl)carbonyl-1′-(3-methoxycarbonyl-phenyl)sulfonyl-5′-aminomethyl-spiro[piperidine-4,3′-(2H)-indole]]"
8,6.21,"NCc1ccc2c(c1)C1(CCN(C(=O)Cc3ccc(Cl)c(Cl)c3)CC1)CO2 [Cpd 86, 1-(3,4-dichloro-benzyl)carbonyl-5′-aminomethyl-spiro[piperidine-4,3′-(2H)-benzo[b]furan]]"
9,6.74,"CSc1cccc(C(=O)N2CCC3(CC2)COc2ccc(CN)cc23)c1 [Cpd 57, 1-(3-methylthio-phenyl)carbonyl-5′-aminomethyl-spiro[piperidine-4,3′-(2H)-benzo[b]furan]]"
10,7.38,"NCc1ccc2c(c1)C1(CCN(C(=O)c3cc(-c4ccccc4)c(C(F)(F)F)s3)CC1)CO2 [Cpd 295, 1-(4-phenyl-5-trifluoromethyl-thien-2-yl)carbonyl-5′-aminomethyl-spiro[piperidine-4,3′-(2H)-benzo[b]furan]]"
11,7.39,"COc1ccc(C(=O)N2CCC3(CC2)COc2ccc(CN)cc23)cc1Br [Cpd 32, 1-(3-bromo-4-methoxy-phenyl)carbonyl-5′-aminomethyl-spiro[piperidine-4,3′-(2H)-benzo[b]furan]]"
12,7.70,"NCc1ccc2c(c1)C1(CCN(C(=O)c3ccc(Cl)c(I)c3)CC1)CO2 [Cpd 34, 1-(3-iodo-4-chloro-phenyl)carbonyl-5′-aminomethyl-spiro[piperidine-4,3′-(2H)-benzo[b]furan]]"
13,6.36,"CC(C)(C)c1ccc(OCc2ccc(C(=O)N3CCC4(CC3)COc3ccc(CN)cc34)o2)cc1 [Cpd 178, 1-[5-(4-tert-butyl-phenoxymethyl)-furan-2-yl]carbonyl-5′-aminomethyl-spiro[piperidine-4,3′-(2H)-benzo[b]furan]]"
14,7.47,"NCc1ccc2c(c1)C1(CCN(C(=O)c3ccc(F)c(Cl)c3)CC1)CO2 [Cpd 27, 1-(3-chloro-4-fluoro-phenyl)carbonyl-5′-aminomethyl-spiro[piperidine-4,3′-(2H)-benzo[b]furan]]"
15,5.43,"Cn1nc(C(F)(F)F)cc1-c1ccc(C(=O)N2CCC3(CC2)COc2ccc(CN)cc23)s1 [Cpd 127, 1-[5-(1-methyl-3-trifluoromethyl-pyrazol-5-yl)-thien-2-yl]carbonyl-5′-aminomethyl-spiro[piperidine-4,3′-(2H)-benzo[b]furan]]"
16,7.43,"NCc1ccc2c(c1)C1(CCN(C(=O)c3cc4ccccc4s3)CC1)CO2 [Cpd 110, 1-benzothien-2-ylcarbonyl-5′-aminomethyl-spiro[piperidine-4,3′-(2H)-benzo[b]furan]]"
17,6.47,"COC(=O)c1ccc(C(=O)N2CCC3(CC2)COc2ccc(CN)cc23)s1 [Cpd 267, 1-(5-methoxycarbonyl-thien-2-yl)carbonyl-5′-aminomethyl-spiro[piperidine-4,3′-(2H)-benzo[b]furan]]"
18,5.20,"NS(=O)(=O)NCc1ccc2c(c1)C1(CCN(C(=O)c3ccc(C#Cc4ccccc4)o3)CC1)CO2 [Cpd 305, 1-(5-phenylethynyl-furan-2-yl)carbonyl-5′-aminosulfonylaminomethyl-spiro[piperidine-4,3′-(2H)-benzo[b]furan]]"

row,pIC50,Compound
1,7.05,"NCc1ccc2c(c1)C1(CCN(C(=O)c3cc4sccc4s3)CC1)CO2 [Cpd 204, 1-thieno[3,2-b]thien-2-ylcarbonyl-5′-aminomethyl-spiro[piperidine-4,3′-(2H)-benzo[b]furan]]"
2,6.19,"NCc1ccc2c(c1)C1(CCN(C(=O)/C=C\c3ccco3)CC1)CO2 [Cpd 242, (Z)-1-(furan-2-ylethenyl)carbonyl-5′-aminomethyl-spiro[piperidine-4,3′-(2H)-benzo[b]furan]]"
3,7.04,"CCC(C)Sc1sc(C(=O)N2CCC3(CC2)COc2ccc(CN)cc23)c2c1C(=O)CC(C)(C)C2 (stereo not shown) [Cpd 231, 1-(3-sec-butylthio-4-oxo-6,6-dimethyl-6,7-dihydro-5H-benzo[c]thien-1-yl)carbonyl-5′-aminomethyl-spiro[piperidine-4,3′-(2H)-benzo[b]furan]]"
4,6.96,"Cc1nc(C)c(C(=O)N2CCC3(CC2)COc2ccc(CN)cc23)s1 [Cpd 118, 1-(2,4-dimethyl-thiazol-5-yl)carbonyl-5′-aminomethyl-spiro[piperidine-4,3′-(2H)-benzo[b]furan]]"
5,6.44,"NCc1ccc2c(c1)C1(CCN(C(=O)c3ccc(Br)cc3)CC1)CO2 [Cpd 59, 1-(4-bromo-phenyl)carbonyl-5′-aminomethyl-spiro[piperidine-4,3′-(2H)-benzo[b]furan]]"
6,6.85,"NCc1ccc2c(c1)C1(CCN(C(=O)c3ccc(-c4ccc(Cl)c(Cl)c4)o3)CC1)CO2 [Cpd 138, 1-[5-(3,4-dichloro-phenyl)-furan-2-yl]carbonyl-5′-aminomethyl-spiro[piperidine-4,3′-(2H)-benzo[b]furan]]"
7,5.32,"CC(=O)c1ccc(C(=O)N2CCC3(CC2)COc2ccc(CN)cc23)cc1 [Cpd 67, 1-(4-methylcarbonyl-phenyl)carbonyl-5′-aminomethyl-spiro[piperidine-4,3′-(2H)-benzo[b]furan]]"
8,5.92,"NCc1ccc2c(c1)C1(CCN(C(=O)CC3c4ccccc4Oc4ccccc43)CC1)CO2 [Cpd 293, 1-9H-xanthen-9-ylmethylcarbonyl-5′-aminomethyl-spiro[piperidine-4,3′-(2H)-benzo[b]furan]]"
9,7.33,"CC(C)Sc1sc(C(=O)N2CCC3(CC2)COc2ccc(CN)cc23)c2c1C(=O)CC(C)(C)C2 [Cpd 225, 1-(3-isopropylthio-4-oxo-6,6-dimethyl-6,7-dihydro-5H-benzo[c]thien-1-yl)carbonyl-5′-aminomethyl-spiro[piperidine-4,3′-(2H)-benzo[b]furan]]"
10,5.72,"N#Cc1cccc(C(=O)N2CCC3(CC2)COc2ccc(CN)cc23)c1 [Cpd 66, 1-(3-cyano-phenyl)carbonyl-5′-aminomethyl-spiro[piperidine-4,3′-(2H)-benzo[b]furan]]"
11,7.26,"Cc1cc(C(=O)N2CCC3(CC2)COc2ccc(CN)cc23)sc1Br [Cpd 259, 1-(4-methyl-5-bromo-thien-2-yl)carbonyl-5′-aminomethyl-spiro[piperidine-4,3′-(2H)-benzo[b]furan]]"
12,5.68,"NCc1ccc2c(c1)C1(CCN(C(=O)c3cccc(OC(F)(F)F)c3)CC1)CO2 [Cpd 60, 1-(3-trifluoromethoxy-phenyl)carbonyl-5′-aminomethyl-spiro[piperidine-4,3′-(2H)-benzo[b]furan]]"
13,6.38,"NCc1ccc2c(c1)C1(CCN(C(=O)c3ccc(OCc4ccccc4)cc3)CC1)CO2 [Cpd 76, 1-(4-benzyloxy-phenyl)carbonyl-5′-aminomethyl-spiro[piperidine-4,3′-(2H)-benzo[b]furan]]"
14,6.85,"NCc1ccc2c(c1)C1(CCN(C(=O)/C=C/c3cccc(Cl)c3)CC1)CO2 [Cpd 164, (E)-1-(3-chloro-phenylethenyl)carbonyl-5′-aminomethyl-spiro[piperidine-4,3′-(2H)-benzo[b]furan]]"
15,6.06,"NCc1ccc2c(c1)C1(CCN(C(=O)/C=C/c3cccc(O)c3)CC1)CO2 [Cpd 265, (E)-1-(3-hydroxy-phenylethenyl)carbonyl-5′-aminomethyl-spiro[piperidine-4,3′-(2H)-benzo[b]furan]]"
16,6.54,"COC(=O)c1cccc(C(=O)N2CC3(CCN(C(=O)c4ccc(C#Cc5ccccc5)o4)CC3)c3cc(CN)ccc32)c1 [Cpd 328, 1-(5-phenylethynyl-furan-2-yl)carbonyl-1′-(3-methoxycarbonyl-phenyl)carbonyl-5′-aminomethyl-spiro[piperidine-4,3′-(2H)-indole]]"
17,6.62,"NCc1ccc2c(c1)C1(CCN(C(=O)c3ccc(-c4ccccc4)s3)CC1)CO2 [Cpd 114, 1-(5-phenyl-thien-2-yl)carbonyl-5′-aminomethyl-spiro[piperidine-4,3′-(2H)-benzo[b]furan]]"
18,7.52,"O=CNCc1ccc2c(c1)C1(CCN(C(=O)c3ccc(C#Cc4ccccc4)o3)CC1)CO2 [Cpd 304, 1-(5-phenylethynyl-furan-2-yl)carbonyl-5′-formylaminomethyl-spiro[piperidine-4,3′-(2H)-benzo[b]furan]]"

row,Compound,pIC50
1,"CNNC(=O)CS(=O)(=O)N1CC2(CCN(C(=O)c3ccc(C#Cc4ccccc4)o3)CC2)c2cc(CN)ccc21 [Cpd 349, 1-(5-phenylethynyl-furan-2-yl)carbonyl-1′-(N′-methylhydrazino-carbonylmethyl)sulfonyl-5′-aminomethyl-spiro[piperidine-4,3′-(2H)-indole]]",7.80
